Test results: patent US20030022864A1, “9-[(5-dihydroxyboryl)-pentyl] purines, useful as an inhibitor of inflammatory cytokines” (priority 2001, published 2003)

What was measured:
[1] = test system: rats with permanent occlusion of the middle cerebral artery; settings: systemic administration, 10 mg/kg 1 hour post ischemia; compared with vehicle controls; cited from earlier work
[2] = test system: TNF-α production by human monocytes; assay: Assay for inhibition of TNF-α production by human monocytes; format: cell-based; settings: 100 ng/ml LPS, 16 hours, ELISA, read-out: IC50 Against TNF-α
Procedure: Assay for inhibition of TNF-α production by human monocytes
Monocytes were prepared by centrifugal counterflow elutriation from PBMC obtained from leukophoresis of normal volunteers (leukopaks) at the Phoresis laboratory located at Duke University Hospital, Durham, N.C., United States of America. PBMC from leukopaks were diluted in sterile isotonic saline/10 mM HEPES (N-[2-Hydroxyethyl]piperazine-N′-[2-ethanesulfonic acid]), the name of a buffer used in biological and protein chemistry) and placed into 50 ml conical polypropylene tubes in 30 ml aliquots. Each aliquot of diluted PBMC is underlaid with 20-25 ml of sterile lymphocyte separation medium (LSM; Organon-Technika, Durham, N.C., United States of America). The tubes were centrifuged at 400× gravity for 40 minutes at room temperature. The mononuclear cells at the interface were resuspended in phosphate buffered saline (PBS) and then separated, using a Beckman elutriator, into lymphocytes and monocytes. Yields of 10^9 monocytes with greater than 90% purity were routinely obtained.
Purified monocytes prepared as described above were suspended at 4×10^6 cells/ml in complete medium. Complete medium is defined as follows: RPMI-1640 supplemented with 100 U/ml penicillin; 100 μg/ml streptomycin; 2 mM L-glutamine; 1 mM Na pyruvate; 1% MEM non-essential amino acids; 25 mM HEPES (all from GIBCO, Gaithersburg, Md., United States of America); and 5% pooled, heat-inactivated (56° C., 30 minutes) human serum from type AB blood (Pel-Freez, Brown Deer, Wis., United States of America). To each well of a 48-well flat bottomed tissue culture plate was added 0.125 ml of cell suspension. Test materials (diluted in complete medium at 2× the desired final concentration) were added in […] to each well. Control wells received 250 μl of complete medium. All samples were tested at a minimum of 4 concentrations in the presence or absence of 100 ng/ml LPS (S. typhosa; Sigma, St. Louis, Mo., United States of America; 125 μl of 4× desired final concentration added) and incubated at 37° C. in humidified 5% CO2 for 16 hours. At this time, culture supernatants were aspirated off and the unattached cells and cell debris removed by a 2 minute spin in a microcentrifuge at 10,000× gravity. The release of TNF-α was determined in the cell-free supernatants using an ELISA capture assay.

[3] = 400 mg 3 times daily, 6 months; placebo 26.8%, p=0.04; cited from earlier work
mRNA encoding for CCR1 = assay: Expression of C-C chemokine receptor mRNA in normal human PBMC by RT-PCR: CCR1; format: cell-based; settings: FIG. 6
Procedure: (§1) The ability of LMP-420 to affect the expression of C-C chemokine receptors on normal human PBMC was tested as illustrated in FIG. 6. […] There was no effect on CCR4, the only other C-C chemokine receptor whose mRNA could be detected in these unstimulated human PBMC. Also, there was no effect on the mRNA for GAPDH which is used as a “housekeeping gene” to verify that equal amounts of mRNA are being reversed transcribed for the analysis. Thus, the ability of LMP-420 to inhibit the expression of CCR1 might contribute to antiinflammatory properties of LMP-420, as well as its ability to inhibit HIV-1 replication.

mRNA for GAPDH = assay: Housekeeping gene mRNA in normal human PBMC by RT-PCR: GAPDH; format: cell-based; settings: FIG. 6
Procedure: as §1

[4] = test system: nitric oxide production by murine macrophage cell line J774.1; assay: Nitric oxide production by a murine macrophage cell line (J774.1), nitrate/nitrite by Griess reagent; format: cell-based; settings: FIG. 2
Procedure: (§2) Assay for inhibition of TNF-α or nitric oxide (NO) by a murine macrophage cell line
(§3) Murine macrophage cell line J774.1 cells were maintained by culture at 37° C. in 5% humidified CO2 in media that was […] (DMEM) supplemented with 100 U/ml penicillin; 100 μg/ml streptomycin; 2 mM L-glutamine; 1 mM Na pyruvate; 1% MEM non-essential amino acids; 25 mM HEPES (all from GIBCO, Gaithersburg, Md., United States of America); and 10% pooled, heat-inactivated (56° C., 30 minutes) fetal bovine serum (FBS; GIBCO). For assays of TNF-α and nitric oxide production, cells were cultured at 1×10^5 cells/well in 96-well tissue culture plates. Test compound was prepared as a stock solution in DMSO and added to each well to give the desired final concentration. DMSO was added to control wells to serve as a vehicle control. Each concentration of test material or vehicle control was tested in replicates of 4 wells. After a 1 hour exposure to test material, a stimulus (either SAK2 stimulatory oligonucleotide [10 μg] or LPS [10 ng/ml]+IFNγ[100 u/ml]) was added to each well, and the plates incubated for 48 hours at 37° C. in 5% humidified CO2. […] Content of nitrite/nitrate in J774.1 cell culture supernatants was expressed as μM.

CCR4 mRNA = assay: Expression of C-C chemokine receptor mRNA in normal human PBMC by RT-PCR: CCR4; format: cell-based; settings: unstimulated human PBMC, FIG. 6
Procedure: as §1

[5] = test system: TNF-α production by murine macrophage cell line J774.1; assay: Inhibition of TNF-α production by a murine macrophage cell line (J774.1); format: cell-based; settings: FIG. 1; read-out: IC50, production of TNF-α by cultured murine macrophage cell line
Procedure: as §2, §3

[6] = cited from earlier work
[7] = target: T1, biologically-active TNF-α (Homo sapiens, UniProt P01375); settings: heart failure patients; cited from earlier work
T1 construct: host or cells: serum of heart-failure patients
T1 sequence (P01375 77-233 limits assumed): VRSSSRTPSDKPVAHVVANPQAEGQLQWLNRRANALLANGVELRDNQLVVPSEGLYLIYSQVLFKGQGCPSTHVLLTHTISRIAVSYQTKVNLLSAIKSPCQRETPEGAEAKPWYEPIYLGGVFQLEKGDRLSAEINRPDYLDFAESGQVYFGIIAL

[8] = two weeks after a single infusion; cited from earlier work

C/C(=N\N=C(N)N)c1cc(NC(=O)CCCCCCCCC(=O)Nc2cc(/C(C)=N/N=C(N)N)cc(/C(C)=N/N=C(N)N)c2)cc(/C(C)=N/N=C(N)N)c1.Cl.Cl.Cl.Cl [CNI-1493]
reduced infarct volume [1]: 80%

Nc1nc(Cl)c2ncn(CCCCO)c2n1 [Comparison Compound 6]
IC50 [2]: > 50 µM

CC(=O)CCCCn1c(=O)c2c(ncn2C)n(C)c1=O [Pentoxifylline]
left ventricular ejection fraction (LVEF) [3]: 38.7%

CCOC(=O)CCCn1cnc2c(Cl)nc(N)nc21 [Comparison Compound 14]
IC50 [2]: > 20 µM

Nc1nc(Cl)c2ncn(CCCCCB(O)O)c2n1 [LMP-420, 2-amino-6-chloro-9-[(5-dihydroxyboryl)-pentyl] purine]
expression of mRNA encoding for CCR1 (mRNA encoding for CCR1): dose-dependent inhibition | effect on the mRNA for GAPDH (mRNA for GAPDH): no effect | effect on the production of nitric oxide as measured by the release of nitrate or nitrite [4]: no effect | IC50 [2]: 0.08 µM | effect on CCR4 mRNA (CCR4 mRNA): no effect | IC50 [5]: ~1 µM

ENBREL
patients who achieved the ARC20 ([6]; 12 weeks, placebo 13%): 73% | patients who met the PsARC ([6]; 12 weeks, placebo 23%): 87% | patients who achieved a 75% improvement in the PASI ([6]; 19 assessable patients per group, placebo 0, p=0.015): 26% | median target lesions (improvement) ([6]; placebo 0%): 50% | median PASI improvement ([6]; placebo 9%): 46% | decrease in serum levels of biologically-active TNF-α [7]: 85%

REMICADE: humanized murine monoclonal antibody to TNF-α
patient's psoriasis [8]: dramatically cleared up

Nc1nc(Cl)c2ncn(CCCC(=O)O)c2n1 [Comparison Compound 13]
IC50 [2]: > 20 µM
